In ChEMBL document CHEMBL2040772, “Tri-substituted acylhydrazines as tertiary amide bioisosteres: HCV NS5B polymerase inhibitors” (Bioorg Med Chem Lett, 2012):

Assays:
[1] = test system: Hepatitis C virus; assay: Antiviral activity against HCV1a infected in human Huh-7 cells after 3 days by renilla luciferase activity based replicon assay; type: functional, organism-based, Hepacivirus hominis; details: subtype 1a, Huh-7, 72 h
[2] = Lipophilicity, log D of the compound; type: physicochemical; details: octanol/water
[3] = test system: Hepatitis C virus; assay: Inhibition of HCV1b NS5B delta21 polymerase assessed as incorporation of nucleotides into sshRNA template using [33P]-CTP after 15 mins by scintillation counting; parameters: species or system Hepatitis C virus subtype 1b; details: 0.25 h
[4] = Cytotoxicity against human HuH7 cells after 3 days by measuring conversion of nonfluorescent calcein-AM into fluorescent calcein; type: cell-based, Huh-7
[5] = test system: Hepatitis C virus; assay: Antiviral activity against HCV1b infected in human Huh-7 cells after 3 days by renilla luciferase activity based replicon assay; type: functional, organism-based, Hepacivirus hominis; details: genotype 1b, Huh-7, 72 h
[6] = Selectivity index, ratio of CC50 for human HuH7 cells to EC50 for HCV1b infected in human Huh-7 cells
[7] = test system: Hepatitis C virus; assay: Binding affinity to HCV1b C-terminally truncated NS5B Cdelta21 RNA dependent RNA polymerase expressed in Escherichia coli by surface plasmon resonance assay; parameters: species or system Hepatitis C virus subtype 1b

SMILES	EC50 [1]	logD [2]	IC50 [3]	CC50 at 72 h [4]	EC50 [5]	Ratio CC50/EC50 [6]	Kd [7]
CC(C)N(c1cc(C#CC(C)(C)C)sc1C(=O)O)C(=O)[C@H]1CC[C@H](C)CC1	90 nM	2	86 nM	> 44000 nM	26 nM		
CN(C)N(c1cc(C#CC(C)(C)C)sc1C(=O)O)C(=O)[C@H]1CC[C@H](C)CC1	478 nM	2.1	88 nM	> 44000 nM	89 nM	>400	
CN(CCO)N(c1cc(C#CC(C)(C)C)sc1C(=O)O)C(=O)[C@H]1CC[C@H](C)CC1			52 nM	> 44000 nM	32 nM		10 nM
CN([C@H]1CC[C@H](O)CC1)N(c1cc(C#CC(C)(C)C)sc1C(=O)O)C(=O)[C@H]1CC[C@H](C)CC1			307 nM	> 44000 nM	34 nM		8 nM
CN(CC1CCOCC1)N(c1cc(C#CC(C)(C)C)sc1C(=O)O)C(=O)[C@H]1CC[C@H](C)CC1			509 nM	> 44000 nM	47 nM		10 nM
CN(C1CCNCC1)N(c1cc(C#CC(C)(C)C)sc1C(=O)O)C(=O)[C@H]1CC[C@H](C)CC1			138 nM	> 44000 nM	60 nM		4 nM
CN1CCC(N(C)N(c2cc(C#CC(C)(C)C)sc2C(=O)O)C(=O)[C@H]2CC[C@H](C)CC2)CC1	25 nM		63 nM	> 44000 nM	7 nM		4 nM
CN(c1ccncc1)N(c1cc(C#CC(C)(C)C)sc1C(=O)O)C(=O)[C@H]1CC[C@H](C)CC1			346 nM	36000 nM	3900 nM		30 nM
